Counter-ions that a name gives are not always drawn.
Experiments:
[1] = tested on: Human fibrosarcoma cells (HT-1080 cells); assay: In vitro inhibitory action against ferroptosis (Erastin-induced cell death, Cell Counting Kit-8); assay type: cell-based; settings: Erastin 3 μmol/L, 24 hours
[2] = tested on: MOG-induced experimental autoimmune encephalomyelitis mouse model; assay: Activity assessment 2 in MOG-induced experimental autoimmune encephalomyelitis mouse model; assay type: in vivo, C57BL/6J mice; settings: 30 mg/kg orally twice daily for 15 days starting 50 days after MOG35-55 inoculation; vs vehicle-dosing group (1.93)
Protocol: (§1) A PBS solution prepared to contain a synthetic partial peptide of MOG (MOG35-55; CSBio) at a concentration of 4 mg/mL was mixed with an equal volume of Freund's complete adjuvant, and a total of 0.1 mL (0.05 mL per flank) of the resulting MOG35-55 dosing solution was inoculated intradermally into the bilateral flanks of C57BL/6J mice (male, 10 weeks old, Charles River Laboratories Japan, Inc.). On the day of inoculation of the MOG35-55 dosing solution and on the second day after the inoculation, 200 μL of pertussis toxin (Sigma Co. LLC) prepared at a concentration of 1 μg/mL was further administered intraperitoneally to the mice.
(§2) The compound of Example 11, the compound of Example 32, and the compound of Example 36 were used as test compounds to assess the effect of the test compounds on increase of neurological score in the MOG-induced experimental autoimmune encephalomyelitis mouse model. The study was performed in the same manner as in Example 175, except that the start day for administrating a test compound, the scoring method, and the timing of determining the neurological score were changed from those in Example 175. Each test compound was administered orally at a dose of 30 mg/kg twice daily for a period of 15 days starting 50 days after the inoculation of the MOG35-55 dosing solution. In addition, the score was determined by the following criteria: 0, normal; 0.5, partial drooping tail; 1, full drooping tail or hind-limb weakness; 2, full drooping tail and hind-limb weakness; 3, hind-limb partial paralysis; 4, hind-limb complete paralysis; 5, fore- and hind-limb complete paralysis.
The vertical axis represents neurological score (mean±standard error, n=7 or 8). On the horizontal axis, “Vehicle” represents the vehicle-dosing group, and “Compound of Example 11” represents the compound of Example 11—dosing group, and “Compound of Example 32” represents the compound of Example 32—dosing group, and “Compound of Example 36” represents the compound of Example 36—dosing group.

[3] = In vitro radical scavenging action (DPPH method); settings: 30 minutes at room temperature, maximum concentration 100 μmol/L
Protocol: Radical scavenging action was evaluated using the DPPH method in the compound of Comparative Example 1, which is a tetrahydroquinoxaline derivative, and in the tetrahydroquinoline derivative (I) or a pharmaceutically acceptable salt thereof. The DPPH method was performed using an antioxidant capacity measurement kit (Dojindo Laboratories).
A test compound was dissolved in DMSO, and the resulting solution was then mixed with an assay buffer and a DPPH solution, which are included in the kit, to a total volume of 200 μL to obtain a final concentration of 10% DMSO, and the reaction was allowed to proceed. Wells added with 100 μmol/L ferrostatin-1, a radical scavenger, were grouped as “control,” and wells added with not test compound were grouped as “background.” The test compound was serially diluted 3-fold starting from a maximum concentration of 100 μmol/L, and the diluted test compound (1.2, 3.7, 11.1, 33.3, or 100 μmol/L) was added and allowed to react at room temperature. Thirty minutes after the reaction, the absorbance at 517 nm was measured, and the average absorbance value was calculated (N=2). The radical scavenging action of the test compound (hereinafter referred to as radical scavenging rate, %) was calculated based on the equation 2 below. The EC50 value of the test compound was calculated from the radical scavenging rate. Radical scavenging rate (%)=[1−{(Average absorbance value at 517 nm measured when a test compound is added)−(Average absorbance value at 517 nm measured in the background)}/{(Average absorbance value at 517 nm measured in the control)−(Average absorbance value at 517 nm measured in the background)}]×100 Equation 2
A note “no detection of radical scavenging action (N.D.),” is given to compounds with a EC50 of >100 μmol/L.

[4] = tested on: MOG-induced experimental autoimmune encephalomyelitis mouse model; assay: Activity assessment 3 in MOG-induced experimental autoimmune encephalomyelitis mouse model; assay type: in vivo, C57BL/6J mice; settings: 10 mg/kg orally twice daily for 10 days starting 53 days after MOG35-55 inoculation; vs vehicle-dosing group (2.25)
Protocol: as §1, §2
The compound of Example 144, the compound of Example 171, and the compound of Example 172 were used as test compounds to assess the effect of the test compounds on increase of neurological score in the MOG-induced experimental autoimmune encephalomyelitis mouse model. […]

[5] = evaluation concentration 30 μmol/L
[6] = evaluation concentration 30 μmol/L, hydrochloride
[7] = evaluation concentration 10 μmol/L

SMILES	EC50 [3]	Ferroptosis inhibition rate (%) [1, 5]	other results
c1ccc2c(c1)CCC(c1cn[nH]c1)N2 (centres unmarked) [Example 11, 2-(1H-pyrazol-4-yl)-1,2,3,4-tetrahydroquinoline]			Ferroptosis inhibition rate (%) ([1]; evaluation concentration 50 μmol/L): 106.0%; neurological score reduction rate [2]: 54.4%
NS(=O)(=O)c1ccc(C2CCc3ccccc3N2)cc1 (centres unmarked) [Example 32, 4-(1,2,3,4-tetrahydroquinolin-2-yl)benzenesulfonamide]	> 100 µM	100.5%	neurological score reduction rate [2]: 55.4%
NC(=O)c1ccc(C2CCc3ccccc3N2)cc1 (centres unmarked) [Example 36, 4-(1,2,3,4-tetrahydroquinolin-2-yl)benzamide]	> 100 µM	98.76%	neurological score reduction rate [2]: 45.1%
NC(=O)c1ccc(C2CCc3c(F)cccc3N2)cc1 (centres unmarked) [Example 137, 4-(5-fluoro-1,2,3,4-tetrahydroquinolin-2-yl)benzamide]	> 100 µM	93.06%	
NC(=O)c1ccc(C2CCc3c(Cl)cccc3N2)cc1 (centres unmarked) [Example 138, 4-(5-chloro-1,2,3,4-tetrahydroquinolin-2-yl)benzamide]	> 100 µM	65.15%	
O=C(Cc1ccc2c(c1)CCC(c1ccccc1)N2)N1CC(O)C1 (centres unmarked) [Example 143, 1-(3-hydroxyazetidin-1-yl)-2-(2-phenyl-1,2,3,4-tetrahydroquinolin-6-yl)ethan-1-one hydrochloride]	> 100 µM		Ferroptosis inhibition rate (%) [1, 6]: 93.97%
O=C(Cc1ccc2c(c1)CCC(c1ccccc1)N2)N1CC(O)C1 (centres unmarked) [Example 144, 1-(3-hydroxyazetidin-1-yl)-2-(2-phenyl-1,2,3,4-tetrahydroquinolin-6-yl)ethan-1-one hydrochloride]	> 100 µM		neurological score reduction rate [4]: 25.0%; Ferroptosis inhibition rate (%) [1, 6]: 96.14%
O=C(Cc1ccc2c(c1)CCC(c1ccccc1)N2)N1CCOCC1 (centres unmarked) [Example 145, 1-morpholino-2-(2-phenyl-1,2,3,4-tetrahydroquinolin-6-yl)ethan-1-one]	> 100 µM	102.0%	
CC1(C)CN(C(=O)Cc2ccc3c(c2)CCC(c2ccccc2)N3)C1 (centres unmarked) [Example 146, 1-(3,3-dimethylazetidin-1-yl)-2-(2-phenyl-1,2,3,4-tetrahy-dro-quin-olin-6-yl)ethan-1-one]	> 100 µM	112.8%	
COC1CN(C(=O)Cc2ccc3c(c2)CCC(c2ccccc2)N3)C1 (centres unmarked) [Example 147, 1-(3-methoxyazetidin-1-yl)-2-(2-phenyl-1,2,3,4-tetrahydroquinolin-6-yl)ethan-1-one]	> 100 µM	93.00%	
O=C(Cc1ccc2c(c1)CCC(c1ccccc1)N2)NC1COC1 (centres unmarked) [Example 148, N-(oxetan-3-yl)-2-(2-phenyl-1,2,3,4-tetrahydroquinolin-6-yl)acetamide]	> 100 µM	86.55%	
O=C(Cc1ccc2c(c1)CCC(c1ccccc1)N2)N1CC(F)(F)C1 (centres unmarked) [Example 149, 1-(3,3-difluoroazetidin-1-yl)-2-(2-phenyl-1,2,3,4-tetrahydroquinolin-6-yl)ethan-1-one]	> 100 µM	99.36%	
CN(CCO)C(=O)Cc1ccc2c(c1)CCC(c1ccccc1)N2 (centres unmarked) [Example 150, N-(2-hydroxyethyl)-N-methyl-2-(2-phenyl-1,2,3,4-tetrahydroquino-lin-6-yl)acetamide]	> 100 µM	106.9%	
O=C(Cc1ccc2c(c1)CCC(c1ccccc1)N2)N1CCC1 (centres unmarked) [Example 151, 1-(azetidin-1-yl)-2-(2-phenyl-1,2,3,4-tetrahydroquinolin-6-yl)ethan-1-one]	> 100 µM	108.2%	
O=C(Cc1ccc2c(c1)CCC(c1ccccc1)N2)NC1CC1 (centres unmarked) [Example 152, N-cyclopropyl-2-(2-phenyl-1,2,3,4-tetrahydroquinolin-6-yl)acetamide]	> 100 µM	108.1%	
O=C(Cc1ccc2c(c1)CCC(c1ccccc1)N2)NC1CCC1 (centres unmarked) [Example 155, N-cyclobutyl-2-(2-phenyl-1,2,3,4-tetrahydroquinolin-6-yl)acetamide]	> 100 µM	106.1%	
O=C1CN(C(=O)Cc2ccc3c(c2)CCC(c2ccccc2)N3)CCN1 (centres unmarked) [Example 157]	> 100 µM	69.89%	
O=C(Cc1ccc2c(c1)CCC(c1ccccc1)N2)N1CCNCC1 (centres unmarked) [Example 158, 2-(2-phenyl-1,2,3,4-tetrahydroquinolin-6-yl)-1-(piperazin-1-yl)ethan-1-one]	> 100 µM	55.98%	
O=C(Cc1ccc2c(c1)CCC(c1ccccc1)N2)N1CC(F)(F)C1 (centres unmarked) [Example 160, 1-(3,3-difluoroazetidin-1-yl)-2-(2-phenyl-1,2,3,4-tetrahydroquinolin-6-yl)ethan-1-one]	> 100 µM		Ferroptosis inhibition rate (%) [1, 7]: 99.11%
O=C(Cc1ccc2c(c1)CCC(c1ccccc1)N2)N1CC(F)(F)C1 (centres unmarked) [Example 161, 1-(3,3-difluoroazetidin-1-yl)-2-(2-phenyl-1,2,3,4-tetrahydroquinolin-6-yl)ethan-1-one]	> 100 µM		Ferroptosis inhibition rate (%) [1, 7]: 94.01%
NS(=O)(=O)c1ccc(C2CNc3ccccc3C2)cc1 (centres unmarked) [Example 171, 4-(1,2,3,4-tetrahydroquinolin-3-yl)benzenesulfonamide]		90.71%	neurological score reduction rate [4]: 47.2%
NS(=O)(=O)c1ccc(C2CNc3ccccc3C2)cc1 (centres unmarked) [Example 172, 4-(1,2,3,4-tetrahydroquinolin-3-yl)benzenesulfonamide]		92.87%	neurological score reduction rate [4]: 27.8%

Source: US12570639B2, “Tetrahydroquinoline derivative and medicinal use thereof” (Toray Industries, Inc., priority 2020, dated 2026)
